Experimental data: EP2853565A1, “Glutamate receptor photomodulators” (Consejo Superior De Investigaciones Científicas, priority 2013, dated 2015)

Legend:
rat mGlu5 receptor = target: T1, rat mGlu5 receptor (Rattus norvegicus, UniProt P31424); test: IP1 accumulation (IP-One HTRF) in transiently transfected HEK293 cells; type: cell-based; conditions: IP1 production, HEK293 cells with rat mGlu5 and EAAC1, 30 min incubation, 100 nM Quisqualate
T1 construct: expressed in transfected cells; host or cells: HEK293 cells (EAAC1 glutamate transporter cotransfected)
T1 sequence (P31424 21-1203): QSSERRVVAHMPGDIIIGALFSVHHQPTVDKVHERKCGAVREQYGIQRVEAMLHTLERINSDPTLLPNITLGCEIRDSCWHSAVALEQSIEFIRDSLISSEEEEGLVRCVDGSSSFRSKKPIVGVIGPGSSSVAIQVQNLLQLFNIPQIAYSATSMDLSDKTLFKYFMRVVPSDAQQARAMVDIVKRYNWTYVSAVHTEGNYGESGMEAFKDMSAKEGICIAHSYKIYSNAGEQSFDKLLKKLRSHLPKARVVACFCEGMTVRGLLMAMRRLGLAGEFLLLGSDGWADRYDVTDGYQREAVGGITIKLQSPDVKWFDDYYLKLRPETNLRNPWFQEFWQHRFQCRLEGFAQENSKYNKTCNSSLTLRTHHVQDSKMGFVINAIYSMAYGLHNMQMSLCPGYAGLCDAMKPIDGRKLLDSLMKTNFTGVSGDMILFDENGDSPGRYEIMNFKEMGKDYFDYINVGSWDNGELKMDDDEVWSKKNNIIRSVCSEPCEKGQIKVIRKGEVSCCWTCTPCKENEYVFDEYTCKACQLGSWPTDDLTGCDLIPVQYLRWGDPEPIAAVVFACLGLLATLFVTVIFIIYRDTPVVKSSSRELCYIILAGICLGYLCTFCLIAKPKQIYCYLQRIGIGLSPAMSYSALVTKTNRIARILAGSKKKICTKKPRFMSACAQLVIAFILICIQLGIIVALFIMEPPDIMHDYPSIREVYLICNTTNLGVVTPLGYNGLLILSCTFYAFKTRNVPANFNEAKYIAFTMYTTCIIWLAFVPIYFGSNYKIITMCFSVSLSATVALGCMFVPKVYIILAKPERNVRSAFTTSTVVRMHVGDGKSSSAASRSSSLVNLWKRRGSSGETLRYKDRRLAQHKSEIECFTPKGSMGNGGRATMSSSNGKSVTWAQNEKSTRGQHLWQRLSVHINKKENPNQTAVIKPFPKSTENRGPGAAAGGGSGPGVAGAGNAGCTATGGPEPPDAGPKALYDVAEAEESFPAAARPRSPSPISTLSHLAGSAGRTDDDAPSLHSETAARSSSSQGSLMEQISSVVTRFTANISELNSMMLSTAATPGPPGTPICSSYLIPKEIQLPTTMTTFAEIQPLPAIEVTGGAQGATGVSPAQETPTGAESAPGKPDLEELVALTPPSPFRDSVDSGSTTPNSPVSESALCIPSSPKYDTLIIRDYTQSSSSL
Method: Pharmacological experiments on mGlu receptors were performed in HEK293 cells cultured in Dulbecco's modified Eagle's medium (GIBCO-BRL Life Technologies Inc., Cergy Pontoise, France) supplemented with 10% fetal calf serum (FCS, GIBCO-BRL Life Technologies., Cergy Pontoise, France). The compounds were tested on a rat mGlu5 receptor, which was transiently transfected in HEK293 cells by electroporation as described elsewhere [Neuropharmacology 1998, 37, 1043-1051]. Additionally, a plasmid encoding the high-affinity glutamate transporter EAAC1 was cotransfected to prevent the influence of the glutamate released by the cells in the medium. Receptor activity is monitored by measurement of IP1 production using the kit IP-One HTRF® Assay from Cisbio Bioassays (France). For IP1 accumulation measurements, cells were seeded after transfection in polyornithine-coated, black-walled 96-well Polystyrene Cell Culture Microplates (Greiner Bio-One SAS, France) and cultured for 24 h in glutamate/glutamine-free medium (GIBCO-BRL Life Technologies Inc., Cergy Pontoise, France) and antibiotics (penicillin and streptomycin, 100 UmL_1 final, GIBCO-BRL Life Technologies). Media was removed and cells were incubated for 30min in a solution containing the drugs at the tested concentrations. The IP-One stimulation buffer, provided with the kit IP-One (Cisbio Bioassays, France), contains lithium chloride (LiCl) at 50mM that inhibits the degradation of IP1 to Myo-inositol, which is then accumulated in the cell. HTRF reagents, monoclonal antibody specific to IP1 labelled with terbium cryptate and IP1 coupled with the dye d2, diluted in a Lysis buffer were added. After 1 hour of incubation, time resolved fluorescence at 620nm and 665nm was measured with RUBYstar (BMG Labtech, Germany). The specific signal, which results from the energy transfer between […], is proportional to the ratio between the fluorescence emitted at 620 nm and 665 nm, and consequently to the concentration of IP1 in the lysate. All points were determined in triplicate. The dose-response curves were fitted using GraphPad Prism software and the following equation: y= [(ymax-ymin)/(1+10^(LogIC50-x))]+ymin, in which IC50 is the concentration of the compound necessary to obtain the half-maximal effect. (10 µM ≤ IC50 < 50 µM +; 2 µM ≤ IC50 < 10 µM ++; 500 nM ≤ IC50 < 2 µM +++; 100 nM ≤ IC50<500 nM ++++; IC50< 100 nM +++++) Table 14.

[1] = target: T2, rat metabotropic glutamate receptor 5 (mGlu5) (Rattus norvegicus, UniProt P31424); test: Single-cell calcium imaging (Fura-2) of quisqualate-evoked calcium oscillations, with photoisomerization by 390/490 nm light; type: cell-based
T2 construct: expressed in transfected cells; host or cells: HEK tsA201 cells
T2 sequence (P31424 21-1171 isoform P31424-2 limits assumed): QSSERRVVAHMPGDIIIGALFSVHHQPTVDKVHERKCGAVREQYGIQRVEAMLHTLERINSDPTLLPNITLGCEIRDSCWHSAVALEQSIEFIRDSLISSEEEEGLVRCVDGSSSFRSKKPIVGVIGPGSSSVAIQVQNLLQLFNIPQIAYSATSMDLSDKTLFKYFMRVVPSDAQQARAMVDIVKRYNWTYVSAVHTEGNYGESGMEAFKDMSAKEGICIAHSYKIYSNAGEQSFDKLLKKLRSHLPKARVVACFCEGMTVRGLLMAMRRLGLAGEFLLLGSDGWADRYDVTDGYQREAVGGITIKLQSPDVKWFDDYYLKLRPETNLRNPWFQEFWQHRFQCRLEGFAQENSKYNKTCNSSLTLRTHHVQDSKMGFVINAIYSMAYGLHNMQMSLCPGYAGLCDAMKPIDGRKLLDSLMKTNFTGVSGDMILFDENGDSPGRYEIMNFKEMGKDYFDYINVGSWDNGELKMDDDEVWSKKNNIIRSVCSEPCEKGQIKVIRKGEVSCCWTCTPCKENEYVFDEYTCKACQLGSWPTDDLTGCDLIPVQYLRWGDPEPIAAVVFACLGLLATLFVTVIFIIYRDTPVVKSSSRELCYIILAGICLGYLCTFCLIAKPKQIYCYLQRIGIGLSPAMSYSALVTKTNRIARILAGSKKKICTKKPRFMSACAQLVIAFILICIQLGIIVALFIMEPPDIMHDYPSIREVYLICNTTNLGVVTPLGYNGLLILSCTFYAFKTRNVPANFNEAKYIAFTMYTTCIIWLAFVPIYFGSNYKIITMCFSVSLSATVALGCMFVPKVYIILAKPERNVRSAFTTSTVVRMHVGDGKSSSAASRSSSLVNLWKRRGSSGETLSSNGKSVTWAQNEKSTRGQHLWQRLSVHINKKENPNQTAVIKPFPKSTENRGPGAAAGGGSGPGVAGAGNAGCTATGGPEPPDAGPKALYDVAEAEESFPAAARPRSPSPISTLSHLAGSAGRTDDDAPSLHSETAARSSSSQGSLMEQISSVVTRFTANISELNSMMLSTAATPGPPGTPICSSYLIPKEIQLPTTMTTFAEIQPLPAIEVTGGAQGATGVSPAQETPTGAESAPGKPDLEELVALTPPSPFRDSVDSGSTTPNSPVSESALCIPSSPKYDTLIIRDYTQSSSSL
Method: Cell Culture and Transient Transfection: Human embryonic kidney (HEK) tsA201 cells were maintained at 37 °C and humidified atmosphere with 5% CO2; cells were grown in Dulbecco's Modified Eagle's Medium/Nutrient Mixture F-12 Ham (DMEM/F12, 1:1) medium, supplemented with 10% Fetal Bovine Serum (FBS) and antibiotics (1% Penicillin/Streptomycin). Once at confluence, culture flasks were washed twice with PBS and harvested with 300 µl Accutase. Expression of rat mGlu5a was induced by transient transfection of the cDNA-containing plasmid with X-tremeGENE 9 DNA Transfection Reagent. For transfection, cells were seeded at a concentration of 10^6 cells per well on 6-multiwell plates with a final volume of 2ml, and immediately transfected following manufacturer's instructions (100 µl mixture of 3:1 (µl:µg) of X-tremeGENE 9 DNA TR:mGlu5a plasmid in serum-free medium, 20 minutes incubation). About 24h after transfection, HEK tsA201 cells transiently overexpressing mGlu5a were seeded onto 15 mm glass coverslips pre-treated with Poly-L-Lysine to allow cell adhesion. Seeding concentration was maintained between 2/4·10^5 cells to get preconfluent cultures at the time of experiment. Transfected cells were used for single-cell calcium imaging experiments between 48 and 72 hours after transfection.
Single-cell Calcium Imaging: At the time of experiments, glass coverslips were mounted onto the recording chamber, and cells were loaded with the high affinity, ratiometric, intracellular calcium indicator Fura-2 AM; the dye was incubated during 30 minutes at 37°C and 5% CO2, at a final concentration of 10 µM in Ca^2+-free extracellular solution (ES, -Ca^2+). We used a ratiometric calcium sensor in order to avoid bleaching artefacts. Cells were then carefully rinsed with fresh ES, three to four times, before the recording chamber was placed on an inverted fully-motorised digital microscope (iMic 2000, Till Photonics, Gräfelfing, Germany). Images were acquired at room temperature with a UV Apochromat 40x oil objective lens (Olympus, Tokio, Japan). Fura-2 AM was excited consecutively for 10 ms at two different wavelengths (340 and 380 nm) as indicated by the manufacturer (Life Technologies, Paisley, UK) by using a Polychrome V light source (Till Photonics) and a 505 nm dichroic beamsplitter (Chroma Technology, Below Falls, VT, USA); emission at 510 nm was filtered by a D535/40nm emission filter (Chroma Technology) and finally collected by a cooled CCD camera (Interline Transfer IMAGO QE, Till Photonics). The fluorescence measurements (excitation + emission recording) were carried out every 2 seconds, and each measurement takes about 10-50 ms. The 340 and 380 nm images were stored by the TILLvisION imaging software (Till Photonics); the ratio of the emission when the sample was excited at 340 nm and the emission when it was excited at 380 nm was recorded and its mean value was calculated for each cell using the same software. Higher ratios correspond to higher intracellular calcium concentrations.
Agonists and allosteric modulators addition was obtained by carefully pipetting an initial 1:30 dilution of the compound directly into the accessory pool of the recording chamber, obtaining a final dilution of 1:1000 (total DMSO concentration was always lower than 1%). Activation of the agonist was induced in HEK tsA201 mGlu5a transfected cells with the glutamate analogue Quisqualic acid (3 µM). Only evoked, sustained intracellular calcium oscillations were taken into account as consistent cell responses to the application of the agonist; different responses (such as single-peak, peak-and-plateau, etc.), as well as spontaneously oscillating cells, were discarded as unsuitable for calculating the oscillatory frequency.
Solutions and Reagents: The extracellular solution (ES) used for single-cell calcium imaging contained: 140 mM NaCl, 5.4 mM KCI, 1 mM MgCl2, 10 mM HEPES, 10 mM glucose and 2 mM CaCl2 adjusted to pH 7.4 with NaOH. […]

[2] = 3 µM quisqualate, HEK tsA201 cells

`O=C(Nc1cccc(/N=N/c2ccccn2)c1)c1ccccn1` [Compound 1t, (E)-N-(3-(pyridin-2-yldiazenyl)phenyl)picolinamide] showed an IC50 (rat mGlu5 receptor) of 10000 to 50000 nM.

Work on `COc1cc(/N=N/c2ccccn2)ccc1NC(=O)c1cscn1` [Compound 1r, (E)-N-(2-Methoxy-4-(pyridin-2-yldiazenyl)phenyl)thiazole-4-carboxamide] yielded an IC50 (rat mGlu5 receptor) of 100 to 500 nM.

In the case of `COc1cc(/N=N/c2ccccn2)ccc1NC(=O)c1ccncc1` [Compound 1f, (E)-N-(2-Methoxy-4-(pyridin-2-yldiazenyl)phenyl)isonicotinamide], the IC50 (rat mGlu5 receptor) is reported as 500 to 2000 nM.

`COc1cc(/N=N/c2ccccn2)ccc1N1C(=O)c2ccccc2C1=O` [Compound 1j, (E)-2-(2-Methoxy-4-(pyridin-2-yldiazenyl)phenyl)isoindoline-1,3-dione] was tested, and the IC50 (rat mGlu5 receptor) was 2000 to 10000 nM.

`O=C(Nc1ccc(/N=N/c2ccccn2)cc1)c1ccccn1` [Compound 1h, (E)-N-(4-(Pyridin-2-yldiazenyl)phenyl)picolinamide] showed an IC50 (rat mGlu5 receptor) of 2000 to 10000 nM.

With `COc1cc(/C=C\c2ccccn2)ccc1NC(=O)c1ccccc1Cl` [(Z)-47, (Z)-2-Chloro-N-(2-methoxy-4-(2-(pyridin-2-yl)vinyl)phenyl)benzamide, reference compound] the “effect on mGlu5 response (calcium oscillations)” value (shortened to “effect … (calcium oscillations)”) [1, 2] was “inhibits mGlu5 activation”.

In the case of `COc1cc(/N=N/c2ccccn2)ccc1NC(=O)c1ccccc1Cl` [Compound 1c, (E)-2-Chloro-N-(2-methoxy-4-(pyridin-2-yldiazenyl)phenyl)benzamide], the “oscillatory frequency at 390 nm” value ([1]; 100 nM compound, 390 nm illumination, compared with quisqualate alone) is reported as “significantly higher than with quisqualate alone”, the “oscillatory responses to 3 µM quisqualate” value ([1]; 100 nM compound, in the dark or under 490 nm light) is reported as “completely blocked” and the “effect … (calcium oscillations)” value [1, 2] is reported as “inhibit mGlu5 response”. The “light dependence of the activity on mGlu5” value ([1]; 3 µM quisqualate, UV (380/390 nm) and visible (500/490 nm) light) was “could be reversibly switched on and off at 390 nm and 490 nm”, the IC50 ([1]; in the dark or under 490 nm light, 3 µM quisqualate, HEK tsA201 cells, read-out: IC50 (inhibitory profile on calcium oscillations)) was 30 nM and the IC50 (rat mGlu5 receptor) was less than 100 nM.

Work on `O=C(Nc1ccccn1)c1ccc(/N=N/c2ccccn2)cc1` [Compound 1s, (E)-N-(Pyridin-2-yl)-4-(pyridin-2-yldiazenyl)benzamide] yielded an IC50 (rat mGlu5 receptor) of 10000 to 50000 nM.

`COc1cc(/N=N\c2ccccn2)ccc1NC(=O)c1ccccc1Cl` [(Z)-1c, (Z)-2-chloro-N-(2-methoxy-4-(pyridin-2-yldiazenyl)phenyl)benzamide] was tested, and the “effect … (calcium oscillations)” value [1, 2] was “increases this response”.

With `COc1cc(/N=N/c2ccccn2)ccc1NC(=O)c1cccnc1` [Compound 1e, (E)-N-(2-Methoxy-4-(pyridin-2-yldiazenyl)phenyl)nicotinamide] the IC50 (rat mGlu5 receptor) was 100 to 500 nM.

For `COc1cc(/C=C/c2ccccn2)ccc1NC(=O)c1ccccc1Cl` [(E)-47, (E)-2-Chloro-N-(2-methoxy-4-(2-(pyridin-2-yl)vinyl)phenyl)benzamide, reference compound], the “effect … (calcium oscillations)” value [1, 2] was “blocked the oscillatory responses of quisqualate”.

For `COc1cc(/N=N/c2ccccn2)ccc1NC(=O)c1ccccc1` [Compound 1l, (E)-N-(2-Methoxy-4-(pyridin-2-yldiazenyl)phenyl)benzamide], the IC50 (rat mGlu5 receptor) was 100 to 500 nM.

`COc1cc(/N=N/c2ccccn2)ccc1NC(=O)c1ccccn1` [Compound 1d, (E)-N-(2-Methoxy-4-(pyridin-2-yldiazenyl)phenyl)picolinamide] showed an IC50 (rat mGlu5 receptor) of 100 to 500 nM.

`COc1cc(/N=N/c2ccccn2)ccc1NC(=O)Nc1ccccc1F` [Compound 1o, (E)-1-(2-Fluorophenyl)-3-(2-methoxy-4-(pyridin-2-yldiazenyl)phenyl)urea] showed an IC50 (rat mGlu5 receptor) of 500 to 2000 nM.

In the case of `COc1cc(/N=N/c2ccccn2)ccc1NC(=O)C(C)C` [Compound 1m, (E)-N-(2-Methoxy-4-(pyridin-2-yldiazenyl)phenyl)isobutyramide], the IC50 (rat mGlu5 receptor) is reported as less than 100 nM.

For `COc1cc(/N=N/c2ccccn2)ccc1NC(=O)c1ccc(Cl)cc1Cl` [Compound 1b, (E)-2,4-Dichloro-N-(2-methoxy-4-(pyridin-2-yldiazenyl)phenyl)benzamide], the IC50 (rat mGlu5 receptor) was 500 to 2000 nM.

`COc1cc(/N=N/c2ccccn2)ccc1N(C(=O)c1ccccc1)C(=O)c1ccccc1` [Compound 1k, (E)-N-Benzoyl-N-(2-methoxy-4-(pyridin-2-yldiazenyl)phenyl)benzamide] was tested, and the IC50 (rat mGlu5 receptor) was 500 to 2000 nM.

`COc1cc(/N=N/c2ccccn2)ccc1NC(=O)c1ccc(C(=O)c2ccccc2)cc1` [Compound 1a, (E)-4-Benzoyl-N-(2-methoxy-4-(pyridin-2-yldiazenyl)phenyl)benzamide] showed an IC50 (rat mGlu5 receptor) of 500 to 2000 nM.

Compound `N#Cc1cc(/N=N/c2ccccn2)ccc1NC(=O)c1ccccn1` [Compound 1g, (E)-N-(2-Cyano-4-(pyridin-2-yldiazenyl)phenyl)picolinamide] has an IC50 (rat mGlu5 receptor) of 2000 to 10000 nM.

`COc1cc(/N=N/c2ccccn2)ccc1NC(=O)C1CCCCC1` [Compound 1n, (E)-N-(2-Methoxy-4-(pyridin-2-yldiazenyl)phenyl)cyclohexanecarboxamide] showed an IC50 (rat mGlu5 receptor) of less than 100 nM.

`COc1cc(/N=N/c2ccccn2)ccc1NC(=O)c1ccccc1F` [Compound 1p, (E)-2-Fluoro-N-(2-methoxy-4-(pyridin-2-yldiazenyl)phenyl)benzamide] was tested, and the IC50 (rat mGlu5 receptor) was 100 to 500 nM.

In the case of `COc1cc(NC(=O)c2ccccn2)ccc1/N=N/c1ccccn1` [Compound 1i, (E)-N-(3-Methoxy-4-(pyridin-2-yldiazenyl)phenyl)picolinamide], the IC50 (rat mGlu5 receptor) is reported as 10000 to 50000 nM.
